Data on one compound can be found in patent US20130266636A1, “METHODS FOR BLOCKING CELL PROLIFERATION AND TREATING DISEASES AND CONDITIONS RESPONSIVE TO CELL GROWTH INHIBITION” (THE REGENTS OF THE UNIVERSITY OF CALIFORNIA, priority 2010, published 2013).

One data set addresses CRAF (Homo sapiens, UniProt P04049). Description: Phospho-S338 CRAF immunoblot in XPA-1 cells. The data set is classed as cell-based. Also on record: total CRAF and total MEK of lysates from XPA-1 cells treated with PD0325901, Sorafenib, L-779450, PLX4720, KG5 or KG1; endogenous in cells; host or cells: XPA-1. As to the method: FIGS. 6 and 7 illustrate immunoblot analysis of CRAF immunoprecipitated from XPA-1 cells treated with KG5 and KG38.
FIG. 13 illustrates immunoblot analysis of phospho-5338 CRAF, phospho-MEK, total CRAF and total MEK of lysates from XPA-1 cells treated with PD0325901, Sorafenib, L-779450, PLX4720, KG5 or KG1.
(§1) Immunoprecipitation and Immunoblot Analysis Cells were lysed in either NP40 lysis buffer (150 mM NaCl, 50 mM Tris Base pH 7.4, 1% NP40) or RIPA buffer (50 mM Tris pH 7.4, 100 mM NaCl, 0.1% SDS) supplemented with complete protease inhibitor mixture (Roche), 50 mM NaF and 1 mM Na3VO4 and centrifuged at 13,000×g for 10 min at 4° C. Protein concentration was determined by BCA assay. […] of protein were immunoprecipitated with […] of anti-Flag (Sigma), anti-CRAF (BD Pharmingen), anti-Plk1 (Abcam), anti-γ-Tubulin (sigma) or anti-cenpF (Santa Cruz) antibodies overnight at 4° C. followed by capture with 25 μl of protein A/G (Pierce). Beads were washed five times, eluted in boiling Laemmli buffer, resolved on 10% SDS-PAGE and immunoblotting was performed with anti-Plk1 antibody (Abcam), anti-CRAF antibody (BD Pharmingen), anti-Aurora A (Abcam), anti-phospho-S338 CRAF (Cell Signaling), anti-phospho-T210 Plk1 or anti-phospho-T288 Aurora A (Cell signaling) diluted 1:1000. For immunoblot analysis, […] of protein was boiled in […]

The test system of the next data set is PKC. To be noted: cited from earlier work.
The target in data set [1] is RAF dimerization (BRAF and CRAF) (Homo sapiens, UniProt P04049). The data set is described as follows: RAF dimerization, immunoblot of BRAF and CRAF immunoprecipitates from A549 cells. It is filed as cell-based. Here is the method:
FIG. 11 illustrates immunoblot analysis of BRAF and CRAF immunoprecipitates from A549 cells treated with PD0325901, Sorafenib, L-779450, PLX4720, KG5 or KG1.
as §1

The target of a further data set is c-Kit (Homo sapiens, UniProt P10721). As to conditions: cited from earlier work.
Chain of c-Kit (P10721 26-976): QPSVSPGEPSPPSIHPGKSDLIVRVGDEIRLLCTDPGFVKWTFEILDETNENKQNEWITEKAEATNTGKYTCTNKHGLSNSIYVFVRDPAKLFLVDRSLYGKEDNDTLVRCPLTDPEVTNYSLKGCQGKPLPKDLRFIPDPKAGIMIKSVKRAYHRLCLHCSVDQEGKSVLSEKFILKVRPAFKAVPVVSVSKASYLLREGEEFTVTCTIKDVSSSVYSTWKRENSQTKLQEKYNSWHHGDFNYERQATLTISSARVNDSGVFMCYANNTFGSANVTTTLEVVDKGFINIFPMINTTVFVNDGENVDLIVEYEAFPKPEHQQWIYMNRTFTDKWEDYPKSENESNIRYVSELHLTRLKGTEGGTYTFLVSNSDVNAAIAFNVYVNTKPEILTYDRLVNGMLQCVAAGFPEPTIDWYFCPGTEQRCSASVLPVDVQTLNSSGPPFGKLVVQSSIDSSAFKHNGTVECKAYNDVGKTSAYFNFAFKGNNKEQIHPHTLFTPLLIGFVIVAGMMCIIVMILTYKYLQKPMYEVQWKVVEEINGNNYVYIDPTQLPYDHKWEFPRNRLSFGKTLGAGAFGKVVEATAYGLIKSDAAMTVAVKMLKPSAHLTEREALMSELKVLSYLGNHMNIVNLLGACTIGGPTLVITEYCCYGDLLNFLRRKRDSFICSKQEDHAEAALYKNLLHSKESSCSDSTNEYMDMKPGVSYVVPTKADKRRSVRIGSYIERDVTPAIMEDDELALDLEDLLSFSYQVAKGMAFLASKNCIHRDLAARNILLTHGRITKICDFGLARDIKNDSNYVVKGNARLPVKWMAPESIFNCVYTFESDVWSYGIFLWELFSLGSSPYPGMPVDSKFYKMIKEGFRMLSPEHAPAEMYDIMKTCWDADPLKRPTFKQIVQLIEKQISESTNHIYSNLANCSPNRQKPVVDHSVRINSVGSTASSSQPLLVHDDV
Another data set relates to PDGFR. As to conditions: cited from earlier work.
The test system of data set [2] is XPA-1-RFP pancreatic tumor xenografts. Description: Orthotopic XPA-1-RFP pancreatic tumor xenograft in Nestin-GFP mice. The data set is classed as in vivo. Here is the method:
FIG. 16 and FIG. 17 illustrate data showing that KG5 inhibits pancreatic tumor growth and reduces tumor vascular density, as described in Murphy (2010) Proc. Natl. Acad. Sci. USA, Mar. 2, 2010; vol. 107(9): 4299-4304. FIGS. 16A and 16B, and FIGS. 17A and 17B: Real-time fluorescent imaging of XPA-1-RFP pancreatic tumor xenografts in the pancreas of Nestin-GFP mice (n=5/group) treated with either vehicle (FIG. 16A, 17A) or KG5 (FIG. 16B, 17B) (50 mg/kg, i.p., bid). Drug treatments were started 3 days after surgical orthotopic implantation (SOT) of XPA-1-RFP tumors, and tumor progression was monitored every 3 days by whole-animal imaging (Scale bar, 10 mm). FIG. 17(C) graphically illustrates a plot of tumor surface area over time for the vehicle- and KG5-treated groups, Tumor surface area was calculated by adding the total pixels of both the ventral and lateral images of the tumor. *P=0.034. FIG. 17(D) graphically illustrates average body weight of the mice measured each day of whole-animal imaging described in A and B. FIG. 16(C) graphically illustrates total weights of resected primary tumors on day 15 post-SOT. *P=0.022.
Animals were systemically treated with either vehicle or KG5 (50 mg/kg, bid) beginning 3 days after surgical orthotopic implantation (SOI) of a tumor fragment. Tumor growth was monitored noninvasively by whole-body imaging. […] Animals treated with KG5 produced an average tumor weight of 26.7 mg compared to 74.1 mg for vehicle-treated animals (FIG. 16C). At this time, GFP-labeled blood vessels were imaged and tumor-associated blood vessel density was quantified by measuring the ratio of total blood vessel length to tumor volume. […] The mean vessel length/tumor volume was 2.5 mm/mm^3 compared to 0.2 mm/mm^3 for vehicle and KG5, respectively.
FIG. 18 further illustrates data from the studies of FIG. 16 and FIG. 17: FIG. 18(A) and FIG. 18(B) illustrate representative fluorescent images of endothelial GFP expression (GFP expression driven by the Nestin promoter) within the XPA-1-RFP tumors after resection. Images were taken 15 days post-SOI (Scale bar, 200 μm); FIG. 18(C) illustrates a plot of tumor vessel density from images acquired as in E, Blood vessels imaged as in E were converted to length (mm) and normalized to tumor volume (mm^3). *P=0.01.

A further data set concerns p-MEK and p-ERK. As to conditions: cited from earlier work.
The next data set relates to FAK or Src. To be noted: cited from earlier work.
For data set [3], the system named is human lung (A549) carcinoma cell line. Description: Cell viability assay in A549 cells. It is filed as cell-based.
Data set [4] relates to human breast (MDA-MB-231) carcinoma cell line. The data set is described as follows: Cell viability assay in MDA-MB-231 cells. The data set is classed as cell-based.

“Also recorded” adds a separate entry of the source.

Chain of CRAF (P04049 whole entry): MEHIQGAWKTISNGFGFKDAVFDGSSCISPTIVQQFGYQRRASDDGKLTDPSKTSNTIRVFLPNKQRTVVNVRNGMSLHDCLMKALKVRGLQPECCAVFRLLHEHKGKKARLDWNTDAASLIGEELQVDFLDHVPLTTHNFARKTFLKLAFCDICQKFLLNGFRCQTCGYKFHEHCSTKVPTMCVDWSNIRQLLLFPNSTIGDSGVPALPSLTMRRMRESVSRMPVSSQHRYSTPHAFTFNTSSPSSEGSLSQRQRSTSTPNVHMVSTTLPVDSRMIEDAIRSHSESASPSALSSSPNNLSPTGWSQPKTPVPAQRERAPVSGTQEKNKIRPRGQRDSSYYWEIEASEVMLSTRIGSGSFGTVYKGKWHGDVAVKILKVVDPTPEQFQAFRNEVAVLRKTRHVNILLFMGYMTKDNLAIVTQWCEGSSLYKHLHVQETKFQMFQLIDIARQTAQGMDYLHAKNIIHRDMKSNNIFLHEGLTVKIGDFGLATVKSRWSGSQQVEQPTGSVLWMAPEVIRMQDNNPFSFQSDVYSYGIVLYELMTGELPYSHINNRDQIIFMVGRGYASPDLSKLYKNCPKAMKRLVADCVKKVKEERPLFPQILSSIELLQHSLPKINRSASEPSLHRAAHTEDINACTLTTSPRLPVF
Chain of RAF dimerization (BRAF and CRAF) (P04049 whole entry): as above

With `CSc1nc(N)cc(Oc2ccc(-c3nnc(Nc4cccc(C(F)(F)F)c4)[nH]3)cc2)n1` [KG5], the “serine 338 phosphorylation on CRAF” value on CRAF is “prevent; also recorded: inhibits phosphorylation of CRAF on serine 338”. In addition, the PKC entry with PKC is listed as “no impact”. Also, in data set [1], the RAF dimerization entry is recorded as “prevents RAF dimerization”. For the same compound, the “inhibition of c-Kit” value at c-Kit was “inhibits”. For the same compound, in the data set with PDGFR, the “inhibition of PDGFR” value is listed as “inhibits”. In [2] (50 mg/kg bid), the body weight result is reported as “no weight loss” and the signs of lethargy entry is recorded as “did not demonstrate any signs of lethargy”. Besides, in [2] (50 mg/kg bid, 12 days post-SOI, compared to vehicle), the “tumor growth by whole-body imaging” value is “completely suppressed”. The compound also had an average tumor weight in [2] (50 mg/kg i.p. bid from 3 days after SOI, resected primary tumors day 15 post-SOI, vehicle 74.1 mg) of 26.7 mg. Further, the “mean vessel length/tumor volume” value in data set [2] (50 mg/kg i.p. bid, 15 days post-SOI, vehicle 2.5 mm/mm^3) was 0.2 mm/mm^3. In addition, the “p-MEK and p-ERK” value in the data set on p-MEK and p-ERK (bFGF- or VEGF-stimulated endothelial cells) is recorded as “blocked”. Moreover, in the data set with p-MEK and p-ERK (endothelial cells), the “bFGF- or VEGF-mediated phosphorylation of MEK on S217/S221” value is “inhibited” and the “bFGF- or VEGF-mediated phosphorylation of MEK on S298” value is “not on S298”. Besides, in the data set with FAK or Src, the “integrin-mediated signaling to FAK or Src” value was “no effect”. Moreover, the cell viability result in data set [3] (A549) was “decrease cell viability”. For the same compound, the EC50 entry in [3] (A549 lung cancer cells) is “approach picomolar (pM) EC50s”. Moreover, in data set [4] (MDA-MB-231), the cell viability entry is on record as “decrease cell viability”. Also, the EC50 entry in data set [4] (MDA-MB-231 breast cancer cell viability assays) is “approach picomolar (pM) EC50s”.
